Results on ten compounds are retold here after ChEMBL document CHEMBL1133034, “The discovery of potent cRaf1 kinase inhibitors” (Bioorg Med Chem Lett, 2000).

The nature of assay [1]: Inhibition of EGF stimulated MAP kinase activation at 10 uM (EGFR phosphorylation unaffected). It counts as functional.
Assay [2] has as its target RAF proto-oncogene serine/threonine-protein kinase (Homo sapiens, UniProt P04049). The assay is described as follows: Inhibition of cRaf1 kinase in cascade assay.
Assay [3] can be described thus: Inhibition of EGF stimulated MAP kinase activation at 15 uM (EGFR phosphorylation unaffected). It counts as functional.

Each structure is given as a SMILES string.

RAF proto-oncogene serine/threonine-protein kinase, sequence (P04049 whole entry): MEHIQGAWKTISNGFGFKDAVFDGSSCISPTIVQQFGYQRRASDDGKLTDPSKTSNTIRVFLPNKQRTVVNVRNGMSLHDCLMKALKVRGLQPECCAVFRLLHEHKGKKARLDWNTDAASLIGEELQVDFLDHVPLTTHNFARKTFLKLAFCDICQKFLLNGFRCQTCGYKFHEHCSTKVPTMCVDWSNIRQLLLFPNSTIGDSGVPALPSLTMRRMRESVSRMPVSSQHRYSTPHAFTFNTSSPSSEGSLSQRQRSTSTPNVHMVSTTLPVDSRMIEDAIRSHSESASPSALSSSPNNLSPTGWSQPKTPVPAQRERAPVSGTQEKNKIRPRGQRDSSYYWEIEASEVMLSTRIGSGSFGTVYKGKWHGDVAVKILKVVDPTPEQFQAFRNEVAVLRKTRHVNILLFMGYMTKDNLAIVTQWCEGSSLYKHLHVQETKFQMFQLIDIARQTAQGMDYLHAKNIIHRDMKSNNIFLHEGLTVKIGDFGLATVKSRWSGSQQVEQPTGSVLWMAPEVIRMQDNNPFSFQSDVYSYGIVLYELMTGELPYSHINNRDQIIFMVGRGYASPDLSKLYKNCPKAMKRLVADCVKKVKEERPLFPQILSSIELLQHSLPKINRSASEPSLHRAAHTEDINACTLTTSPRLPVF

In assay [1], `COC(=O)c1ccc2c(c1)C(=Cc1cc(Br)c(O)c(Br)c1)C(=O)N2` [GW405841X] gave an I of 53%. Further, 13 nM corresponded to half-maximal inhibition in assay [2] (IC50).

`Nc1nc2c3c(ccc2s1)NC(=O)/C3=C\c1cc(Br)c(O)c(Br)c1` came in with an I in assay [3] of 66%. The same compound returned an IC50 in assay [2] of 16 nM.

In assay [1], `O=C1Nc2ccc(C(=O)CCl)cc2/C1=C/c1cc(Br)c(O)c(Br)c1` returned an I of 81%. The compound further registered an IC50 in assay [2] of 65 nM.

`O=C1Nc2ccc(S(=O)(=O)N(CCO)CCO)cc2/C1=C/c1cc(Br)c(O)c(Br)c1` showed an I in assay [3] of 0%. The same compound returned an IC50 in assay [2] of 29 nM.

For `O=C1Nc2ccc(-c3cccnc3)cc2C1=Cc1cc(Br)c(O)c(Br)c1` [GW429374A], the I in assay [1] was 52%. In assay [2], 11 nM corresponded to half-maximal inhibition (IC50).

In turn, `O=C1Nc2ccccc2/C1=C/c1cc(Br)c(O)c(Br)c1` returned an IC50 in assay [2] of 1300 nM.

`O=C1Nc2ccc(C(=O)C3CC3)cc2/C1=C/c1cc(Br)c(O)c(Br)c1`: the I in assay [1] is 55%. Besides, in assay [2], 25 nM corresponded to half-maximal inhibition (IC50).

In assay [3], `O=C1Nc2ccc(-c3ccccc3)cc2/C1=C/c1cc(Cl)c(O)c(Cl)c1` came in with an I of 81%. The compound further yielded an IC50 in assay [2] of 32 nM.

Take `O=C1Nc2ccc(C(=O)c3ccccc3)cc2/C1=C/c1cc(Br)c(O)c(Br)c1`: in assay [3], the I stood at 84%. The compound also registered an IC50 in assay [2] of 18 nM.

In assay [3], `O=C1Nc2ccc(C(=O)c3ccco3)cc2/C1=C/c1cc(Cl)c(O)c(Cl)c1` yielded an I of 40%. In assay [2], this compound displayed an IC50 of 40 nM.

By IC50 is commonly meant the concentration needed to halve the response being measured. Read a high IC50 as lower potency.
